Measured values from patent US20250099535A1, “GEPOTIDACIN AND VANCOMYCIN FOR USE IN THE TREATMENT OF AN INFECTION CAUSED BY STAPHYLOCOCCUS SAPROPHYTICUS” (GlaxoSmithKline Intellectual Property Development Limited, priority 2022, published 2025).
≈ marks a conversion by molar mass, not a printed value. Read-outs that look alike come from different tables or passages of the source. Blank lines part the entries; values can stand above or below the compound they belong to.

What was measured:
Format in all cases: cell-based
[1] = tested on: Enterococcus faecalis; test: Baseline broth microdilution MIC (CLSI M07); conditions: for MIC: Enterococcus faecalis
Protocol: (§1) MIC values were determined in triplicate by Clinical and Laboratory Standards Institute (CLSI) […] (2018) reference broth microdilution (BMD) using cation adjusted Mueller Hinton broth (CAMHB) to determine a consensus median baseline MIC value for each isolate and compound. As required by CLSI M100 (2021), quality control (QC) strains Escherichia coli ATCC 25922, Pseudomonas aeruginosa ATCC 27853, Staphylococcus aureus 29213, and Enterococcus faecalis ATCC 29212 were tested concomitantly with the clinical isolates. (QC data not shown).

[2] = tested on: Staphylococcus saprophyticus; test: Baseline broth microdilution MIC (CLSI M07)
Protocol: as §1

[3] = tested on: Staphylococcus saprophyticus; test: Time-kill kinetic assay; conditions: 1× MIC, 5 S. saprophyticus isolates
Protocol: CAMHB was used for the follow-up time-kill kinetic studies. Each organism was tested in media containing either compound alone, or both, at ½×, ¼×, and 1× their respective MICs. Time-kill concentration tubes were sampled at time 0 hours (T0), T2, T4, T8, and T24. Samples were serially diluted ten-fold up to 8 times in tubes with […] of a 0.85% saline solution. A volume of 0.1 mL was then plated onto tryptic-soy agar with 5% sheep blood from the original sample and subsequent dilutions. Plates were incubated for 24 hours at 35° C. before quantifying the viable cell count for each tube at the specified times (T0-T24).
As described in the CLSI M26-A manual, bactericidal activity was defined as a 3-log10 decrease in CFU/mL below the starting inoculum that was maintained for 24 hours. […] The number of surviving organisms in the presence of the combination was required to be ≥2 log10 CFU/mL below the starting inocula and at least one of the drugs should not affect the growth curve of the tested organism.

- MIC ([1]; isolate E. faecalis 1097863, CAMHB, read-out: GEP MIC): 1 µg/mL (≈ 2.23 µM)
- MIC ([1]; isolate E. faecalis 1103597, CAMHB, read-out: GEP MIC): 0.5 µg/mL (≈ 1.11 µM)
- MIC ([1]; isolate E. faecalis 1103850, CAMHB, read-out: GEP MIC): 0.5 µg/mL (≈ 1.11 µM)
- MIC ([1]; isolate E. faecalis 1111210, CAMHB, read-out: GEP MIC): 1 µg/mL (≈ 2.23 µM)
- MIC ([1]; isolate E. faecalis 1124756, CAMHB, read-out: GEP MIC): 0.5 µg/mL (≈ 1.11 µM)
- MIC ([2]; isolate S. saprophyticus 1106006, CAMHB, read-out: GEP MIC): 0.25 µg/mL (≈ 0.557 µM)
- MIC ([2]; isolate S. saprophyticus 1113726, CAMHB, read-out: GEP MIC): 0.12 µg/mL (≈ 0.268 µM)
- MIC ([2]; isolate S. saprophyticus 1115244, CAMHB, read-out: GEP MIC): 0.12 µg/mL (≈ 0.268 µM)
- MIC ([2]; isolate S. saprophyticus 1125669, CAMHB, read-out: GEP MIC): 0.25 µg/mL (≈ 0.557 µM)
- MIC ([2]; isolate S. saprophyticus 1129086, CAMHB, read-out: GEP MIC): 0.25 µg/mL (≈ 0.557 µM)
Structure (SMILES): O=c1ccc2ncc(=O)n3c2n1C[C@H]3CN1CCC(NCc2cc3c(cn2)OCCC3)CC1 [gepotidacin, (2R)-2-({4-[(3,4-dihydro-2H-pyrano[2,3-c]pyridin-6-ylmethyl)amino]-1-piperidinyl}methyl)-1,2-dihydro-3H,8H-2a,5,8a-triazaacenaphthylene-3,8-dione]
- Bactericidal activity (3-log10 decrease in CFU/mL below the starting inoculum maintained for 24 hours) [3]: not achieved

Structure (SMILES): CN[C@H](CC(C)C)C(=O)N[C@H]1C(=O)N[C@@H](CC(N)=O)C(=O)N[C@H]2C(=O)N[C@H]3C(=O)N[C@H](C(=O)N[C@H](C(=O)O)c4cc(O)cc(O)c4-c4cc3ccc4O)[C@H](O)c3ccc(c(Cl)c3)Oc3cc2cc(c3O[C@@H]2O[C@H](CO)[C@@H](O)[C@H](O)[C@H]2O[C@H]2C[C@](C)(N)[C@H](O)[C@H](C)O2)Oc2ccc(cc2Cl)[C@H]1O [vancomycin]
- MIC ([1]; read-out: VANC MIC): 1 µg/mL (≈ 0.69 µM)
- VANC MIC ([1]; isolate E. faecalis 1103597, CAMHB): 1 µg/mL
- VANC MIC ([1]; isolate E. faecalis 1103850, CAMHB): 1 µg/mL
- VANC MIC ([1]; isolate E. faecalis 1111210, CAMHB): 1 µg/mL
- VANC MIC ([1]; isolate E. faecalis 1124756, CAMHB): 1 µg/mL
- MIC ([2]; read-out: VANC MIC, isolate S. saprophyticus 1106006, CAMHB): 0.5 µg/mL (≈ 0.345 µM)
- MIC ([2]; read-out: VANC MIC, isolate S. saprophyticus 1113726, CAMHB): 1 µg/mL (≈ 0.69 µM)
- MIC ([2]; read-out: VANC MIC, isolate S. saprophyticus 1115244, CAMHB): 1 µg/mL (≈ 0.69 µM)
- MIC ([2]; read-out: VANC MIC, isolate S. saprophyticus 1125669, CAMHB): 1 µg/mL (≈ 0.69 µM)
- MIC ([2]; read-out: VANC MIC, isolate S. saprophyticus 1129086, CAMHB): 0.5 µg/mL (≈ 0.345 µM)
- Bactericidal activity (3-log10 decrease in CFU/mL below the starting inoculum maintained for 24 hours) [3]: not achieved
